Where a name gives a salt, the structure may show the parent alone. Read-outs that look alike come from different tables or passages of the source.
Experiments:
[1] = molecular target: AII receptor; test: Angiotensin II receptor binding (displacement of 3H-AII); conditions: read-out: Angiotensin II Receptor Binding IC50, rat adrenal cortical microsomes, 2 nM 3H-AII, 1 hour, room temperature
Summary of the method: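 The receptor source was rat adrenal cortical microsomes in Tris buffer, incubated with 2 nM ³H-AII plus or minus test compound for 1 h at room temperature. Bound and free ligand were separated by rapid filtration on glass-fibre filters. Filter-bound ³H-AII was counted by scintillation.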

[2] = tested on: Renal Hypertensive Rats; test: Antihypertensive effects in renal hypertensive rats; format: in vivo; conditions: Rattus norvegicus; for minimal effective dose at 30 mg/kg / minimal effective dose at 3 mg/kg: Table 26; for minimal effective dose at 30 mg/kg / minimal effective dose at 100 mg/kg: oral; for minimal effective dose at 3 mg/kg / minimal effective dose at 10 mg/kg: intravenous; for minimal effective dose at 10 mg/kg / minimal effective dose at 100 mg/kg: Table 25; for minimal effective dose at 10 mg/kg: 10 mg/kg or less; for minimal effective dose at 100 mg/kg: 100 mg/kg or less
Summary of the method: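 Renal hypertensive rats (renin-driven AII elevation) dosed orally at 100 mg/kg and/or i.v. via jugular cannula at 10 mg/kg; a second set used 30 mg/kg oral and 3 mg/kg i.v. Arterial pressure recorded continuously via carotid cannula and compared with pretreatment levels.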

[3] = Table 25, tested as sodium salt

Structure (SMILES)	IC50 [1, 3]	minimal effective dose at 10 mg/kg ([2]; tested as sodium salt)	minimal effective dose at 100 mg/kg ([2]; tested as sodium salt)	other results
CCCc1nc(C(F)(F)C(F)(F)F)c(C=O)n1Cc1ccc(-c2ccccc2C(=O)O)cc1 [Example 140B]				IC50 ([1]; Table 26): 160 nM; minimal effective dose at 30 mg/kg [2]: < 30 mg/kg
CCCc1nc(C(F)(F)F)c(C=O)n1Cc1ccc(-c2ccccc2-c2nnn[nH]2)cc1 [Example 140C]				IC50 ([1]; Table 26): 20 nM; minimal effective dose at 3 mg/kg [2]: < 3 mg/kg; minimal effective dose at 30 mg/kg [2]: < 30 mg/kg
CCCCc1nc(Br)c(C=O)n1Cc1ccc(-c2ccccc2C(=O)O)cc1 [Example 140D]				IC50 ([1]; Table 26): 400 nM; minimal effective dose at 3 mg/kg [2]: < 3 mg/kg; minimal effective dose at 30 mg/kg [2]: < 30 mg/kg
CCCCc1nc(Br)c(C=O)n1Cc1ccc(-c2ccccc2-c2nnn[nH]2)cc1 [Example 140E]				IC50 ([1]; Table 26): 33 nM; minimal effective dose at 3 mg/kg [2]: < 3 mg/kg; minimal effective dose at 30 mg/kg [2]: < 30 mg/kg
CCC=Cc1nc(C(F)(F)F)c(C=O)n1Cc1ccc(-c2ccccc2C(=O)O)cc1 [Example 140F]				IC50 ([1]; Table 26): 200 nM; minimal effective dose at 3 mg/kg [2]: < 3 mg/kg; minimal effective dose at 30 mg/kg [2]: < 30 mg/kg
CCCCc1nc(C(F)(F)F)c(C(=O)OC)n1Cc1ccc(-c2ccccc2-c2nnn[nH]2)cc1 [Example 140H]				IC50 ([1]; Table 26): 76 nM; minimal effective dose at 3 mg/kg [2]: < 3 mg/kg; minimal effective dose at 30 mg/kg [2]: < 30 mg/kg
CCCCc1nc(C(F)(F)F)c(C(=O)OCC)n1Cc1ccc(-c2ccccc2-c2nnn[nH]2)cc1 [Example 140I]				IC50 ([1]; Table 25): 52 nM; minimal effective dose at 10 mg/kg [2]: < 10 mg/kg; minimal effective dose at 100 mg/kg [2]: < 100 mg/kg
CCCCc1nc(C(F)(F)F)c(C(N)=O)n1Cc1ccc(-c2ccccc2-c2nnn[nH]2)cc1 [Example 140J]				IC50 ([1]; Table 26): 27 nM; minimal effective dose at 3 mg/kg [2]: < 3 mg/kg; minimal effective dose at 30 mg/kg [2]: < 30 mg/kg
CCCCc1nc(I)c(C=O)n1Cc1ccc(-c2ccccc2-c2nnn[nH]2)cc1 [Example 140K]				IC50 ([1]; Table 26): 38 nM; minimal effective dose at 3 mg/kg [2]: < 3 mg/kg; minimal effective dose at 30 mg/kg [2]: < 30 mg/kg
CCCCc1nc(Cl)c(C=O)n1Cc1cccc(-c2ccccc2-c2nnn[nH]2)c1 [Example 140L]				IC50 ([1]; Table 26): 5700 nM; minimal effective dose at 3 mg/kg [2]: < 3 mg/kg; minimal effective dose at 30 mg/kg [2]: < 30 mg/kg
CCCCc1nc(Cl)c(CNC(=O)OCC)n1Cc1ccc(-c2ccccc2C(=O)O)cc1 [Example 148, 2-Butyl-1-[(2'-carboxybiphenyl-4-yl)methyl]-4-chloro-5-(ethoxycarbonylaminomethyl)imidazole]	200 nM	< 10 mg/kg	< 100 mg/kg	
CCCCc1nc(Cl)c(CNC(=O)Oc2ccccc2)n1Cc1ccc(-c2ccccc2C(=O)O)cc1 [Example 149]	450 nM	< 10 mg/kg	< 100 mg/kg	
CCCCc1nc(Cl)c(CNC(=O)OC)n1Cc1ccc(-c2ccccc2C(=O)O)cc1 [Example 150]	200 nM	< 10 mg/kg	< 100 mg/kg	
CCCCc1nc(Cl)c(CNC(=O)OCCC)n1Cc1ccc(-c2ccccc2C(=O)O)cc1 [Example 151]	560 nM	< 10 mg/kg	< 100 mg/kg	
CCCCc1nc(Cl)c(CNC(=O)OC(C)C)n1Cc1ccc(-c2ccccc2C(=O)O)cc1 [Example 152]	250 nM	< 10 mg/kg	< 100 mg/kg	
CCCCOC(=O)NCc1c(Cl)nc(CCCC)n1Cc1ccc(-c2ccccc2C(=O)O)cc1 [Example 153]	200 nM	< 10 mg/kg	< 100 mg/kg	

Structure (SMILES)	IC50 [1, 3]	minimal effective dose at 10 mg/kg ([2]; tested as sodium salt)	minimal effective dose at 100 mg/kg ([2]; tested as sodium salt)	other results
CCCCc1nc(Cl)c(CNC(=O)OC23CC4CC(CC(C4)C2)C3)n1Cc1ccc(-c2ccccc2C(=O)O)cc1 [Example 154]	600 nM	< 10 mg/kg	< 100 mg/kg	
CCCCc1nc(Cl)c(CNC(=O)OC)n1Cc1ccc(-c2ccccc2-c2nnn[nH]2)cc1 [Example 156]				IC50 ([1]; Table 25): 60 nM; minimal effective dose at 10 mg/kg [2]: < 10 mg/kg
CCCCc1nc(CNC(=O)OC)c(Cl)n1Cc1ccc(-c2ccccc2C(=O)O)cc1 [Example 160]	120 nM	< 10 mg/kg	< 100 mg/kg	
CCCCc1nc(CNC(=O)OCCC)c(Cl)n1Cc1ccc(-c2ccccc2C(=O)O)cc1 [Example 162]	140 nM	< 10 mg/kg	< 100 mg/kg	
CCCCc1nc(Cl)c(CNC(=O)Nc2cccc3ccccc23)n1Cc1ccc(-c2ccccc2C(=O)O)cc1 [Example 165, 2-n-Butyl-1-[(2'-carboxybiphenyl-4-yl)methyl]-4-chloro-5-(1-naphthylaminocarbonylaminomethyl)-imidazole]	3000 nM	< 10 mg/kg	> 100 mg/kg	
CCCCc1nc(Cl)c(CNC(=O)NC)n1Cc1ccc(-c2ccccc2C(=O)O)cc1 [Example 166]	240 nM	< 10 mg/kg	> 100 mg/kg	
CCCCc1nc(Cl)c(CNC(=O)NC(C)c2cccc3ccccc23)n1Cc1ccc(-c2ccccc2C(=O)O)cc1 (stereo not drawn) [Example 171]	600 nM	< 10 mg/kg	> 100 mg/kg	
CCCCc1nc(Cl)c(COC)n1Cc1ccc(-c2ccccc2Cc2nn[nH]n2)cc1 [Example 174, 2-n-Butyl-4-chloro-5-methoxymethyl-1-[(2'-((tetrazol-5-yl)methyl)biphenyl-4-yl)methyl]imidazole]	300 nM	< 10 mg/kg	> 100 mg/kg	
CCCCc1nc(Cl)c(CO)n1Cc1ccc(-c2ccccc2CC(=O)O)cc1 [Example 175, 2-n-Butyl-1-[(2'-(carboxymethyl)biphenyl-4-yl)methyl]-4-chloro-5-(hydroxymethyl)-imidazole.dicyclohexylamine salt]	1500 nM	< 10 mg/kg	> 100 mg/kg	
CCCCc1nc(Cl)c(COC)n1Cc1ccc(-c2ccccc2C(=O)NNS(=O)(=O)C(F)(F)F)cc1 [Example 176, 2-n-Butyl-4-chloro-5-methoxymethyl-1-[4-(2-(trifluoromethylsulfonylhydrazido)biphenyl-4-yl)methyl]imidazole]				IC50 ([1]; Table 25): 200 nM; minimal effective dose at 10 mg/kg [2]: < 10 mg/kg; minimal effective dose at 100 mg/kg [2]: > 100 mg/kg
CCCCc1nc(Cl)c(CO)n1Cc1ccc(-c2ccccc2-c2c[nH]nn2)cc1 [Example 177]				IC50 ([1]; Table 25): 9600 nM; minimal effective dose at 10 mg/kg [2]: < 10 mg/kg; minimal effective dose at 100 mg/kg [2]: > 100 mg/kg
CCCCc1nc(Cl)c(CO)n1Cc1ccc(-c2ccccc2C(=O)NOCc2ccccc2)cc1 [Example 181]				IC50 ([1]; Table 25): 4900 nM; minimal effective dose at 10 mg/kg [2]: < 10 mg/kg; minimal effective dose at 100 mg/kg [2]: > 100 mg/kg
CCCCc1nc(Cl)c(CO)n1Cc1ccc(-c2ccccc2C(=O)NO)cc1 [Example 182]				IC50 ([1]; Table 25): 4100 nM; minimal effective dose at 10 mg/kg [2]: < 10 mg/kg; minimal effective dose at 100 mg/kg [2]: > 100 mg/kg
CCCCc1nc(Cl)c(CC(=O)O)n1Cc1ccc(OCc2ccccc2C(=O)O)cc1 [Example 192, 1-[4-(2-Carboxybenzyloxy)benzyl]-2-butyl-4-chloroimidazole-5-acetic acid]				IC50 ([1]; Table 25): 2300 nM; minimal effective dose at 100 mg/kg [2]: > 100 mg/kg
CCCCc1nc(Cl)c(Cn2cncn2)n1Cc1ccc(C(=O)c2ccccc2C(=O)O)cc1 [Example 204, 2-Butyl-1-[4-(2-Carboxybenzoyl)benzyl]-4-chloro-5-((1,2,4-triazol-1-yl)methyl)imidazole]	1900 nM	< 10 mg/kg	> 100 mg/kg	
